Results from patent US6890951B2, “Treatment of addiction and addiction-related behavior” (Brookhaven Science Associates LLC, priority 1998, dated 2005).
“Also recorded” adds a separate entry of the source. Like-named read-outs stand apart in the source and are kept apart here.

Columns and labels:
[1] = system: extracellular DA in the NACC; experiment: Microdialysis: methamphetamine-induced increases in NACC DA; type: in vivo, rats; conditions: Rattus norvegicus
Excerpt: All animals were used under an IACUC-approved protocol and with strict adherence to the NIH guidelines. Adult male Sprague-Dawley rats (200-300 g, Taconic Farms), housed in the animals care facility under 12:12 light/dark conditions, were placed into 6 groups (n=5-9), anesthetized and siliconized guide cannulae were stereotactically implanted into the right NACC (2.0 mm anterior and 1.0 mm lateral to bregms, and 7.0 mm ventral to the cortical surface) at least 4 days prior to study. Microdialysis probes (2.0 mm, Bioanalytical Systems, BAS, West Lafayette, Ind.) were positioned within the guide cannulae and artificial cerebrospinal fluid (ACSF, 155.0 mM NA^−, 1.1 mM Ca^2−, 2.9 mM K^−, 132.76 mM Cl^−, and 0.83 mM Mg^2−) was administered through the probe using a CMA/100 microinfusion pump (BAS) at a flow rate of 2.0 μl/min. Animals were placed in bowls, and probes were inserted and flushed with ACSF overnight. On the day of the study, a minimum of three samples were injected to determine baseline stability. Samples were collected for 20 min. and injected on-line (CMA/160, BAS). The average Dopamine concentration of these three stable samples was defined as control (100%), and all subsequent treatment values were transformed to a percentage of that control. […] The high performance liquid chromatography (HPLC) system consists of a BAS reverse-phase column (3.0 μC-18), a BAS LC-4C electrochemical transducer with a dual/glassy carbon electrode set at 650 mV, a computer that analyzes data on-line using a commercial software package (Chromograph Bioanalytical Systems), and a dual pen chart recorder. The mobile phase (flow rate 1.0 ml/min) consisted of 7.0% methanol, 50 mM sodium phosphate monobasic, 1.0 mM sodium octyl sulfate, and 0.1 mm […], pH 4.0. DA eluted at 7.5 min. Upon completion of the study, animals were decapitated and frozen sections were obtained for probe placement verification.
Methamphetamine at a dose of 1.25 mg/kg i.p. and 2.5 mg/kg i.p. was administered to the animals. It was noted that methamphetamine elevated extracellular DA concentrations in the NACC by approximately 2500% over basal levels, 100 minutes following administration of 2.5 mg/kg and approximately 1500% over basal levels following administration of 1.25 mg/kg (FIG. 6). DA returned to basal levels approximately 200 minutes following administration.

male F344 rats = conditions: cited from earlier work
NAc DA = experiment: Microdialysis: cocaine/heroin (speedball) induced increases in NAc DA; type: in vivo, rats
Experimental: In vivo microdialysis studies were performed using adult male Sprague-Dawley rats (Taconic Farms) as detailed previously (Morgan and Dewey, 1998). Cocaine, a dopamine reuptake inhibitor, (n=6-8) was administered (i.p.) at a dose of 20 mg/kg while heroin, an indirect dopamine releaser, (n=6-8) was administered (i.p.) at a dose of 0.5 mg/kg. In studies designed to investigate the synergistic effects of a cocaine/heroin combination (n=6-8), both drugs were administered at the identical dose used in the single drug studies. Alone cocaine produced a marked elevation in extracellular DA of approximately 380% above baseline values, 60 minutes following administration. DA returned to baseline within 120 minutes. In contrast, heroin increased NAc DA by only 70%, 60 minutes following administration, returning to baseline within 140 minutes. However, when combined, the two drugs produced an increase in NAc DA of approximately 1000%, 180 minutes following administration that had not returned to baseline values by 200 minutes after reaching peak values (FIG. 9).

rhesus monkeys = conditions: cited from earlier work
[2] = system: extracellular DA in the NACC; experiment: Microdialysis: ethanol-induced increases in NACC DA; type: in vivo, rats; conditions: Rattus norvegicus
Excerpt: All animals were used under an IACUC-approved protocol and with strict adherence to the NIH guidelines. Adult male Sprague-Dawley rats (200-300 g, Taconic Farms), housed in the animals care facility under 12:12 light/dark conditions, were placed into 6 groups (n=5-9), anesthetized and siliconized guide cannulae were stereotactically implanted into the right NACC (2.0 mm anterior and 1.0 mm lateral to bregms, and 7.0 mm ventral to the cortical surface) at least 4 days prior to study. […] Animals were placed in bowls, and probes were inserted and flushed with ACSF overnight. On the day of the study, a minimum of three samples were injected to determine baseline stability. Samples were collected for 20 min. and injected on-line (CMA/160, BAS). The average Dopamine concentration of these three stable samples was defined as control (100%), and all subsequent treatment values were transformed to a percentage of that control. […] The high performance liquid chromatography (HPLC) system consists of a BAS reverse-phase column (3.0 μC-18), a BAS LC-4C electrochemical transducer with a dual/glassy carbon electrode set at 650 mV, a computer that analyzes data on-line using a commercial software package (Chromograph Bioanalytical Systems), and a dual pen chart recorder. The mobile phase (flow rate 1.0 ml/min) consisted of 7.0% methanol, 50 mM sodium phosphate monobasic, 1.0 mM sodium octyl sulfate, and 0.1 mm EDNA, pH 4.0. […] Upon completion of the study, animals were decapitated and frozen sections were obtained for probe placement verification.
Ethanol at a dose of 1.0 g/kg i.p. was administered to the animals.

male Sprague-Dawley rats = type: in vivo
Excerpt: In all rodent studies, male Sprague-Dawley rats were used (200-225 g, Taconic farms, Germantown, N.Y.). Animals were allowed to acclimate to the animal housing facility for at least 5 days prior to beginning the experiments. […] The conditioning procedure for the acquisition phase consisted of 12 sessions carried out consecutively over 12 days.
The animals in each group were randomly assigned to a 2×2 factorial design with one factor being the pairing chamber and the other factor being the order of conditioning. The animals that received either saline or cocaine were injected and confined to the appropriate compartment for 30 minutes.
[…] The amount of time spent in each chamber was recorded using an automated infrared beam electronically coupled to a timer.
In this example the procedure outlined in Section 2 of Materials and Methods was followed.

[3] = in vivo; cited from earlier work
[4] = acquisition, 75 mg/kg GVG 2.5 hours prior to cocaine 20 mg/kg
[5] = acquisition, 75 mg/kg GVG/Saline pairing
[6] = acquisition, 112 mg/kg GVG 2.5 hours prior to cocaine 20 mg/kg
[7] = acquisition, 112 mg/kg GVG/Saline pairing
[8] = acquisition, 150 mg/kg GVG 2.5 hours prior to cocaine 20 mg/kg
[9] = acquisition, 150 mg/kg GVG/Saline pairing
[10] = acquisition, 300 mg/kg GVG 2.5 hours prior to cocaine 20 mg/kg
[11] = acquisition, 300 mg/kg GVG/Saline pairing
[12] = expression, Saline/Cocaine pairings, GVG 75 mg/kg on test day
[13] = expression, Saline/Cocaine pairings, GVG 112 mg/kg on test day
[14] = expression, Saline/Cocaine pairings, GVG 150 mg/kg on test day
[15] = expression, Saline/Cocaine pairings, GVG 300 mg/kg on test day
[16] = expression, Saline/Saline pairings, GVG 112 mg/kg on test day
[17] = expression, Saline/Saline pairings, GVG 150 mg/kg on test day
[18] = expression, Saline/Saline pairings, GVG 300 mg/kg on test day

C=CC(N)CCC(=O)O (racemic) [GVG, 4-amino-5-hexanoic acid]
inhibition at 300 mg/kg [1]: ~38%
inhibition at 600 mg/kg [1]: ~58%
decrease in brain stimulation reward thresholds produced by 2.5 and 5 mg/kg i.p. cocaine (male F344 rats; GVG 400 mg/kg): significantly antagonized
brain stimulation reward thresholds (male F344 rats; GVG alone): dose-dependent increase
temporal aspects of the response to cocaine/heroin (NAc DA; GVG 300 mg/kg i.p.): did not effect the temporal aspects of the response
increase in NAc DA after cocaine/heroin challenge (NAc DA; GVG 300 mg/kg i.p. 2.5 hours prior to challenge, 180 minutes following challenge): approximately 500%
synergistic effects of the combined drug challenge (absolute magnitude) (NAc DA; GVG 300 mg/kg i.p. 2.5 hours prior to cocaine/heroin): completely abolished the synergistic effects
withdrawal signs or symptoms (rhesus monkeys; animals withdrawn from chronic GVG treatment): do not exhibit withdrawal signs or symptoms
self-administration of GVG (rhesus monkeys; rhesus monkeys): not self-administered
inhibition at 300 mg/kg [2]: ~50%
inhibition at 100 mg/kg ([2]; read-out: inhibition of alcohol's ability to increase nucleus accumbens dopamine): ~40%
acquisition and expression of cocaine-induced CPP (male Sprague-Dawley rats; GVG 75 mg/kg, cocaine 20 mg/kg): not
Time spent in chambers, Paired (male Sprague-Dawley rats; [4]): 9.1 ± 1.1 min
Time spent in chambers, Unpaired (male Sprague-Dawley rats; [4]): 5.9 ± 1.2 min
Time spent in chambers, Paired (male Sprague-Dawley rats; [5]): 7.3 ± 0.5 min
Time spent in chambers, Unpaired (male Sprague-Dawley rats; [5]): 7.7 ± 0.6 min
Time spent in chambers, Paired (male Sprague-Dawley rats; [6]): 8.2 ± 0.5 min
Time spent in chambers, Unpaired (male Sprague-Dawley rats; [6]): 6.8 ± 0.5 min
Time spent in chambers, Paired (male Sprague-Dawley rats; [7]): 7.6 ± 0.6 min
Time spent in chambers, Unpaired (male Sprague-Dawley rats; [7]): 7.4 ± 0.6 min
Time spent in chambers, Paired (male Sprague-Dawley rats; [8]): 7.9 ± 0.8 min
Time spent in chambers, Unpaired (male Sprague-Dawley rats; [8]): 7.1 ± 0.8 min
Time spent in chambers, Paired (male Sprague-Dawley rats; [9]): 7.8 ± 0.6 min
Time spent in chambers, Unpaired (male Sprague-Dawley rats; [9]): 7.2 ± 0.6 min
Time spent in chambers, Paired (male Sprague-Dawley rats; [10]): 7.6 ± 0.7 min
Time spent in chambers, Unpaired (male Sprague-Dawley rats; [10]): 7.2 ± 0.7 min
Time spent in chambers, Paired (male Sprague-Dawley rats; [11]): 7.2 ± 0.4 min
Time spent in chambers, Unpaired (male Sprague-Dawley rats; [11]): 7.8 ± 0.4 min
Time spent in chambers, Paired (male Sprague-Dawley rats; [12]): 10.6 ± 0.6^3 min
Time spent in chambers, Unpaired (male Sprague-Dawley rats; [12]): 4.4 ± 0.9 min
Time spent in chambers, Paired (male Sprague-Dawley rats; [13]): 8.1 ± 0.7 min
Time spent in chambers, Unpaired (male Sprague-Dawley rats; [13]): 6.9 ± 0.6 min
Time spent in chambers, Paired (male Sprague-Dawley rats; [14]): 7.9 ± 0.3 min
Time spent in chambers, Unpaired (male Sprague-Dawley rats; [14]): 7.1 ± 0.3 min
Time spent in chambers, Paired (male Sprague-Dawley rats; [15]): 7.9 ± 0.5 min
Time spent in chambers, Unpaired (male Sprague-Dawley rats; [15]): 7.1 ± 0.6 min
Time spent in chambers, Paired (male Sprague-Dawley rats; [16]): 7.2 ± 0.3 min
Time spent in chambers, Unpaired (male Sprague-Dawley rats; [16]): 7.8 ± 0.3 min
Time spent in chambers, Paired (male Sprague-Dawley rats; [17]): 7.7 ± 0.2 min
Time spent in chambers, Unpaired (male Sprague-Dawley rats; [17]): 7.3 ± 1.1 min
Time spent in chambers, Paired (male Sprague-Dawley rats; [18]): 7.3 ± 0.4 min
Time spent in chambers, Unpaired (male Sprague-Dawley rats; [18]): 7.7 ± 0.3 min
excretion [3]: excreted primarily unchanged in the urine; also recorded: excreted primarily in the unchanged form by the kidneys
interaction with the hepatic microsomal enzymes [3]: does not interact with the hepatic microsomal enzymes
